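1) Cells in 96-well plates. 2) Compound, 48 h, 5 concentrations. 3) Linear interpolation between surrounding doses. 4) Unreached endpoint = highest concentration. GI50: concentration for 50% inhibition of growth. TGI: concentration producing complete growth inhibition.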
How the values were obtained:
Assay in all cases: NCI tumour cell line growth inhibition, 48 h
786-0 renal = system: 786-0 renal
A498 renal = system: A498 renal
A549 NSCLC = system: A549 NSCLC
BT-549 breast = system: BT-549 breast
CAKI-1 renal = system: CAKI-1 renal
CCRF-CEM leukemia = system: CCRF-CEM leukemia
COLO 205 colon = system: COLO 205 colon
DU-145 prostate = system: DU-145 prostate
HCC-2998 colon = system: HCC-2998 colon
HCT-116 colon = system: HCT-116 colon
HCT-15 colon = system: HCT-15 colon
HL-60(TB) leukemia = system: HL-60(TB) leukemia
HOP-62 NSCLC = system: HOP-62 NSCLC
HOP-92 NSCLC = system: HOP-92 NSCLC
HS 578T breast = system: HS 578T breast
HT29 colon = system: HT29 colon
IGROV1 ovarian = system: IGROV1 ovarian
K-562 leukemia = system: K-562 leukemia
KM12 colon = system: KM12 colon
MALME-3M melanoma = system: MALME-3M melanoma
MDA-MB-231 breast = system: MDA-MB-231 breast
MDA-MB-435 = system: MDA-MB-435
MOLT-4 leukemia = system: MOLT-4 leukemia
NCI-H226 lung = system: NCI-H226 lung
NCI-H460 lung = system: NCI-H460 lung
NCI-H522 lung = system: NCI-H522 lung
NCI/ADR-RES ovarian = system: NCI/ADR-RES ovarian
OVCAR-3 ovarian = system: OVCAR-3 ovarian
OVCAR-4 ovarian = system: OVCAR-4 ovarian
OVCAR-5 ovarian = system: OVCAR-5 ovarian
OVCAR-8 ovarian = system: OVCAR-8 ovarian
PC-3 prostate = system: PC-3 prostate
RPMI-8226 leukemia = system: RPMI-8226 leukemia
RXF 393 renal = system: RXF 393 renal
SF-268 CNS = system: SF-268 CNS
SF-295 CNS = system: SF-295 CNS
SF-539 CNS = system: SF-539 CNS
SK-MEL-2 melanoma = system: SK-MEL-2 melanoma
SK-MEL-5 melanoma = system: SK-MEL-5 melanoma
SN12C renal = system: SN12C renal
SNB-19 CNS = system: SNB-19 CNS
SNB-75 CNS = system: SNB-75 CNS
SR leukemia = system: SR leukemia
SW-620 colon = system: SW-620 colon
T-47D breast = system: T-47D breast
U251 CNS = system: U251 CNS
UACC-257 melanoma = system: UACC-257 melanoma
UACC-62 melanoma = system: UACC-62 melanoma
UO-31 renal = system: UO-31 renal
ACHN renal = system: ACHN renal
EKVX NSCLC = system: EKVX NSCLC
LOX IMVI melanoma = system: LOX IMVI melanoma
M14 melanoma = system: M14 melanoma
MCF7 breast = system: MCF7 breast
NCI-H23 lung = system: NCI-H23 lung
SK-MEL-28 melanoma = system: SK-MEL-28 melanoma
SK-OV-3 ovarian = system: SK-OV-3 ovarian
TK-10 renal = system: TK-10 renal

## COc1cnc2c(c1)C(=O)c1c-2n(CCCNC(C)C)c(=O)c2cc(Cl)ccc12
786-0 renal
  GI50: 438 nM
  TGI: 1980 nM
A498 renal
  GI50: 334 nM
  TGI: 5270 nM
A549 NSCLC
  GI50: 90.2 nM
  TGI: 2070 nM
BT-549 breast
  GI50: 698 nM
  TGI: 2590 nM
CAKI-1 renal
  GI50: 65.2 nM
  TGI: 2150 nM
CCRF-CEM leukemia
  GI50: 41.9 nM
  TGI: 1060 nM
COLO 205 colon
  GI50: 111 nM
  TGI: 2000 nM
DU-145 prostate
  GI50: 173 nM
  TGI: 2060 nM
HCC-2998 colon
  GI50: 1370 nM
  TGI: 2850 nM
HCT-116 colon
  GI50: 138 nM
  TGI: 1010 nM
HCT-15 colon
  GI50: 1080 nM
  TGI: 2780 nM
HL-60(TB) leukemia
  GI50: 300 nM
  TGI: 1690 nM
HOP-62 NSCLC
  GI50: 70.9 nM
  TGI: 1530 nM
HOP-92 NSCLC
  GI50: 1050 nM
  TGI: 2440 nM
HS 578T breast
  GI50: 1520 nM
  TGI: 4080 nM
HT29 colon
  GI50: 398 nM
  TGI: 2090 nM
IGROV1 ovarian
  GI50: 756 nM
  TGI: 2320 nM
K-562 leukemia
  GI50: 451 nM
  TGI: 2130 nM
KM12 colon
  GI50: 1090 nM
  TGI: 2450 nM
MALME-3M melanoma
  GI50: 1500 nM
  TGI: 3070 nM
MDA-MB-231 breast
  GI50: 1390 nM
  TGI: 3180 nM
MDA-MB-435
  GI50: 1140 nM
  TGI: 2420 nM
MOLT-4 leukemia
  GI50: 39.7 nM
  TGI: 452 nM
NCI-H226 lung
  GI50: 1580 nM
  TGI: 30100 nM
NCI-H460 lung
  GI50: 37.2 nM
  TGI: 1200 nM
NCI-H522 lung
  GI50: 133 nM
  TGI: 1970 nM
NCI/ADR-RES ovarian
  GI50: 301 nM
  TGI: 2750 nM
OVCAR-3 ovarian
  GI50: 1390 nM
  TGI: 3020 nM
OVCAR-4 ovarian
  GI50: 1040 nM
  TGI: 2700 nM
OVCAR-5 ovarian
  GI50: 1700 nM
  TGI: 3500 nM
OVCAR-8 ovarian
  GI50: 286 nM
  TGI: 2130 nM
PC-3 prostate
  GI50: 948 nM
  TGI: 2570 nM
RPMI-8226 leukemia
  GI50: 1210 nM
  TGI: 3350 nM
RXF 393 renal
  GI50: 568 nM
  TGI: 2010 nM
SF-268 CNS
  GI50: 148 nM
  TGI: 1940 nM
SF-295 CNS
  GI50: 52.3 nM
  TGI: 1430 nM
SF-539 CNS
  GI50: 554 nM
  TGI: 1870 nM
SK-MEL-2 melanoma
  GI50: 13300 nM
  TGI: 34900 nM
SK-MEL-5 melanoma
  GI50: 1140 nM
  TGI: 2380 nM
SN12C renal
  GI50: 417 nM
  TGI: 2110 nM
SNB-19 CNS
  GI50: 439 nM
  TGI: 2610 nM
SNB-75 CNS
  GI50: 146 nM
  TGI: 1590 nM
SR leukemia
  GI50: 57.7 nM
  TGI: 464 nM
SW-620 colon
  GI50: 50.3 nM
  TGI: 1710 nM
T-47D breast
  GI50: 278 nM
  TGI: 2550 nM
U251 CNS
  GI50: 65.4 nM
  TGI: 1530 nM
UACC-257 melanoma
  GI50: 12100 nM
  TGI: 32800 nM
UACC-62 melanoma
  GI50: 303 nM
  TGI: 1910 nM
UO-31 renal
  GI50: 498 nM
  TGI: 2040 nM

## O=c1c2sc(=S)n(-c3ccc(F)cc3)c2ncn1Cc1ccc(F)cc1F
786-0 renal
  GI50: 80500 nM
  TGI: > 100000 nM
A498 renal
  GI50: > 100000 nM
  TGI: > 100000 nM
A549 NSCLC
  GI50: 92100 nM
  TGI: > 100000 nM
ACHN renal
  GI50: > 100000 nM
  TGI: > 100000 nM
BT-549 breast
  GI50: > 100000 nM
  TGI: > 100000 nM
CAKI-1 renal
  GI50: 37700 nM
  TGI: > 100000 nM
CCRF-CEM leukemia
  GI50: > 100000 nM
  TGI: > 100000 nM
COLO 205 colon
  GI50: > 100000 nM
  TGI: > 100000 nM
DU-145 prostate
  GI50: > 100000 nM
  TGI: > 100000 nM
EKVX NSCLC
  GI50: > 100000 nM
  TGI: > 100000 nM
HCC-2998 colon
  GI50: > 100000 nM
  TGI: > 100000 nM
HCT-116 colon
  GI50: 81800 nM
  TGI: > 100000 nM
HCT-15 colon
  GI50: > 100000 nM
  TGI: > 100000 nM
HL-60(TB) leukemia
  GI50: > 100000 nM
  TGI: > 100000 nM
HOP-62 NSCLC
  GI50: > 100000 nM
  TGI: > 100000 nM
HOP-92 NSCLC
  GI50: 44800 nM
  TGI: > 100000 nM
HS 578T breast
  GI50: 78800 nM
  TGI: > 100000 nM
HT29 colon
  GI50: > 100000 nM
  TGI: > 100000 nM
IGROV1 ovarian
  GI50: > 100000 nM
  TGI: > 100000 nM
K-562 leukemia
  GI50: > 100000 nM
  TGI: > 100000 nM
KM12 colon
  GI50: > 100000 nM
  TGI: > 100000 nM
LOX IMVI melanoma
  GI50: > 100000 nM
  TGI: > 100000 nM
M14 melanoma
  GI50: > 100000 nM
  TGI: > 100000 nM
MALME-3M melanoma
  GI50: > 100000 nM
  TGI: > 100000 nM
MCF7 breast
  GI50: 67700 nM
  TGI: > 100000 nM
MDA-MB-231 breast
  GI50: > 100000 nM
  TGI: > 100000 nM
MDA-MB-435
  GI50: > 100000 nM
  TGI: > 100000 nM
MOLT-4 leukemia
  GI50: > 100000 nM
  TGI: > 100000 nM
NCI-H226 lung
  GI50: > 100000 nM
  TGI: > 100000 nM
NCI-H23 lung
  GI50: > 100000 nM
  TGI: > 100000 nM
NCI-H460 lung
  GI50: > 100000 nM
  TGI: > 100000 nM
NCI-H522 lung
  GI50: > 100000 nM
  TGI: > 100000 nM
NCI/ADR-RES ovarian
  GI50: > 100000 nM
  TGI: > 100000 nM
OVCAR-3 ovarian
  GI50: > 100000 nM
  TGI: > 100000 nM
OVCAR-4 ovarian
  GI50: > 100000 nM
  TGI: > 100000 nM
OVCAR-5 ovarian
  GI50: > 100000 nM
  TGI: > 100000 nM
OVCAR-8 ovarian
  GI50: > 100000 nM
  TGI: > 100000 nM
PC-3 prostate
  GI50: 80800 nM
  TGI: > 100000 nM
RPMI-8226 leukemia
  GI50: > 100000 nM
  TGI: > 100000 nM
RXF 393 renal
  GI50: > 100000 nM
  TGI: > 100000 nM
SF-268 CNS
  GI50: 76000 nM
  TGI: > 100000 nM
SF-295 CNS
  GI50: 81900 nM
  TGI: > 100000 nM
SF-539 CNS
  GI50: > 100000 nM
  TGI: > 100000 nM
SK-MEL-2 melanoma
  GI50: > 100000 nM
  TGI: > 100000 nM
SK-MEL-28 melanoma
  GI50: > 100000 nM
  TGI: > 100000 nM
SK-MEL-5 melanoma
  GI50: 84300 nM
  TGI: > 100000 nM
SK-OV-3 ovarian
  GI50: > 100000 nM
  TGI: > 100000 nM
SN12C renal
  GI50: > 100000 nM
  TGI: > 100000 nM
SNB-19 CNS
  GI50: 75800 nM
  TGI: > 100000 nM
SNB-75 CNS
  GI50: 94000 nM
  TGI: > 100000 nM
SW-620 colon
  GI50: > 100000 nM
  TGI: > 100000 nM
T-47D breast
  GI50: > 100000 nM
  TGI: > 100000 nM
TK-10 renal
  GI50: 96000 nM
  TGI: > 100000 nM
U251 CNS
  GI50: > 100000 nM
  TGI: > 100000 nM
UACC-257 melanoma
  GI50: > 100000 nM
  TGI: > 100000 nM
UACC-62 melanoma
  GI50: > 100000 nM
  TGI: > 100000 nM
UO-31 renal
  GI50: > 100000 nM
  TGI: > 100000 nM

From PubChem BioAssay (NCI)
